Test results reported in PMC3828267 (PLoS ONE, 2013).
Like-named read-outs stand apart in the source and are kept apart here.

Assays:
α3β4 AChRs [1] = molecular target: T1, α3β4 AChRs (Homo sapiens, UniProt P30926+P32297); assay: Smoldering activation following acute desensitization, α3β4; assay type: cell-based; conditions: α3β4, antagonist 10 µM applied after 10 minutes
T1 construct: expressed in transfected cells
Method: (§1) Responses were monitored for 10 minutes, and then specific antagonists were added and responses recorded for another two minutes.

α7 AChRs [2] = molecular target: T2, α7 AChRs (Homo sapiens, UniProt P36544); conditions: α7, antagonist 10 µM applied after 10 minutes
T2 sequence (P36544 23-502): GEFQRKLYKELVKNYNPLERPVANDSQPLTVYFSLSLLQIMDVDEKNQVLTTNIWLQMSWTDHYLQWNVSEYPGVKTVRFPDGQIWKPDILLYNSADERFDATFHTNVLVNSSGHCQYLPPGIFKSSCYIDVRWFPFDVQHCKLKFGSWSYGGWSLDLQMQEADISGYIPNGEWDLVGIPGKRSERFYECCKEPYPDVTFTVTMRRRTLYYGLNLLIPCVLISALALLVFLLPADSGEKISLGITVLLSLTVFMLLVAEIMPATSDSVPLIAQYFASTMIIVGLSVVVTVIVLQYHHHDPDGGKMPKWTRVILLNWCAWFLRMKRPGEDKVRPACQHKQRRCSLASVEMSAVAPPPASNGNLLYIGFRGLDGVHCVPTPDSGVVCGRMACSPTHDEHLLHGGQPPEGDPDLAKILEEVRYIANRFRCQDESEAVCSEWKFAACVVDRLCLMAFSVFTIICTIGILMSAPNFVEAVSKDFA
Method: as §1

[3] = parameters: method as in PMID 22899751; conditions: mice treated with 2 mg/kg; cited from earlier work
α7 AChRs [4] = molecular target: T2, α7 AChRs; assay: Chronic desensitization (16 h agonist, then ACh response) and calculated smoldering activation, α7 cell line; assay type: cell-based; parameters: expressed in transfected cells; grown in VPA and PBA; conditions: α7: 10 µM ACh
Method: (§2) To measure desensitization, plates were prepared as for agonist assays. Sixteen hours prior to the assay, serial dilutions of agonists, prepared in regular growth medium, were added to the plates. One hour before the assay, the membrane potential-sensitive fluorescent dye with 0.5 µM atropine was added to the wells. […] Each data point represents the average of peak values for individual dose response curves from 4–8 wells.
(§3) Data were graphed using GraphPad Prism software. Non-linear models (sigmoidal dose-response with variable slope or two site competition) were used to fit the concentration response curves. The EC50 and IC50 were calculated from the curves. Kaleidagraph software was used to determine Hill slopes and standard errors of the EC50 and IC50.
(§4) Responses for the three different AChRs are shown in Figures 3, 4, 5, 6, along with the dose response curves for activation (the same as shown in Figure 2). The range of concentrations at which both sustained activation and desensitization can occur (“smoldering activation”) was calculated by multiplying the acute response to agonists at each concentration by the fractional response remaining after desensitization.

human α4β2 AChRs [5] = molecular target: T3, human α4β2 AChRs (Homo sapiens, UniProt P17787+P43681); assay: Chronic desensitization (16 h agonist, then ACh response) and calculated smoldering activation, α4β2 cell line; assay type: cell-based; conditions: for IC50: overnight (16 h) agonist, first (more sensitive) component, read-out: Desensitization IC50; for Hill (desensitization): first component
T3 construct: expressed in transfected cells
T3 sequence (P43681 29-627 limits assumed): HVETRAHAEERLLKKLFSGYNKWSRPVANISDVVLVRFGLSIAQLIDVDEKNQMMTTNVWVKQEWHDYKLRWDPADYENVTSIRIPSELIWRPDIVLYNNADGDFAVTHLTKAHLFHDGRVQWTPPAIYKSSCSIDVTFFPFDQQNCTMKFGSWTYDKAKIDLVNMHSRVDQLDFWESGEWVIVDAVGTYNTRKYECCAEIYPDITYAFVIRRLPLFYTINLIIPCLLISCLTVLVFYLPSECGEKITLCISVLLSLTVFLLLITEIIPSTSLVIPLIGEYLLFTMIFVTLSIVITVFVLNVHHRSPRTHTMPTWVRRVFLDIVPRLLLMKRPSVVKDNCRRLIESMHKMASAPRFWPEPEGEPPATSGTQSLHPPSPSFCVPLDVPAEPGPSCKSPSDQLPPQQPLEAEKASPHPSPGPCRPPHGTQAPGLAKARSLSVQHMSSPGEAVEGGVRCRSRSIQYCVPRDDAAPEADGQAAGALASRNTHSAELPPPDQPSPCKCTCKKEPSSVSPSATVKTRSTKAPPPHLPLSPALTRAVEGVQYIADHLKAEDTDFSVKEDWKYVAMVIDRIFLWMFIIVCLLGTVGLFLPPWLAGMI
T3 sequence (P17787 26-502): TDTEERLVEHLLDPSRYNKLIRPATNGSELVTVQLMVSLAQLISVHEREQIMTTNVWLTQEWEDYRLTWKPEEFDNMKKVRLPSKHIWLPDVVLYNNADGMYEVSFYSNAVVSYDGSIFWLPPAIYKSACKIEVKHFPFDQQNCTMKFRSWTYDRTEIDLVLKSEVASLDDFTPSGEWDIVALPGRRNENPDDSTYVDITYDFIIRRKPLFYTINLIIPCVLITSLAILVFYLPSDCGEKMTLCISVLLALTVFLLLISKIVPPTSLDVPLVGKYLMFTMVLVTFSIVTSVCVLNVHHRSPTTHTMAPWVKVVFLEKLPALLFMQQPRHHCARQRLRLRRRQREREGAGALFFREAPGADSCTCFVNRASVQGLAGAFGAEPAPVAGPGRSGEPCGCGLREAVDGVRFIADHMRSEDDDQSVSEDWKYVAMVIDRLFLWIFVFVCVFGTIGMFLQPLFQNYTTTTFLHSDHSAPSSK
Method: as §2, §3, §4

(α4β2)2β2 AChRs [6] = molecular target: T4, (α4β2)2β2 AChRs (Homo sapiens, UniProt P17787+P43681); conditions: cited from earlier work
T4 construct: expressed in transfected cells
T4 sequence (P43681 29-627 limits assumed): as the sequence (P43681 29-627 limits assumed) above
T4 sequence (P17787 26-502): as the sequence (P17787 26-502) above

(α4β2)2α4 AChRs = conditions: cited from earlier work
α7 AChRs [7] = molecular target: T2, α7 AChRs; assay: Acute activation, FLEXStation membrane potential dye, α7/RIC-3 cell line; assay type: cell-based; parameters: expressed in transfected cells; grown in VPA and PBA; conditions: α7
Method: (§5) The parental cell line used for transfections was tsA201, derived from the human embryonic kidney cell line (HEK) 293 [33]. […] The cell line permanently expressing α3β4 AChRs has been described, [34]. A stable cell line expressing functional α7 AChRs was prepared by initially transfecting the tsA201 cell line with cDNA for α7 and subsequently transfecting with cDNA for the AChR-selective chaperone, human RIC-3.
(§6) Responses to nicotinic agonists were determined using a FLEXStation microplate fluorometer (Molecular Devices, Sunnyvale, CA) as described. For cell lines expressing α4β2 and α3β4 AChRs, the cells were plated at 10^5 cells/ml (100 µl/well) in black-walled clear-bottom 96 well plates (Costar, Fisher Scientific, Pittsbugh, PA), and incubated for 48 hours prior to assaying responses to various nicotinic agonists. The α7/RIC-3 expressing cells were plated at 5×10^5/ml in black-walled clear-bottom 96 well BioCoat plates (BD Biosciences, Franklin Lakes, NJ) in the continued presence of VPA and PBA, with the addition of 5% human AB serum (Pel-Freez Biologicals, Rogers, AR) to further increase expression of α7 [35]. The cells were then grown for 24 hours prior to the assay.
(§7) To measure responses to various nicotinic agonists, 100 µl of a fluorescent dye which is sensitive to changes in membrane potential (Molecular Devices) was added to the wells. The dye was prepared according to the manufacturer’s instructions, with the addition of atropine (0.5 µM) to block muscarinic responses. The plates were then incubated at 37°C for one hour prior to the assay. Serial dilutions of agonists were then prepared in Hanks Balanced Salt Solution (HBSS) in V-shaped 96-well plates (Fisher Scientific Co, Pittsburgh, PA). Fluorescent responses were measured in the FLEX Station at 25°C, with an excitation wavelength of 530 nm and an emission wavelength of 565 nm. Various agonists (50 µl) were added after the first 20 seconds and responses were followed for 60–120 seconds.
as §3

human α4β2 AChRs [8] = molecular target: T3, human α4β2 AChRs; assay: Acute activation, FLEXStation membrane potential dye, α4β2 cell line; assay type: cell-based
Method: as §5, §6, §7, §3

(α4β2)2β2 AChRs [9] = molecular target: T4, (α4β2)2β2 AChRs; assay: Sazetidine-A desensitization of α4β2 cell line enriched for (α4β2)2β2 by β2 transfection and nicotine; assay type: cell-based; conditions: 6 h sazetidine-A, 3 µM and 100 µM ACh curves overlapped
Excerpt: To determine which stoichiometry of α4β2 AChRs was affected by sazetidine-A, we performed short term transfection of β2 subunits into the α4β2 expressing cell line. To increase the expression of the higher sensitivity (α4β2)2β2 stoichiometry, the cell line expressing α4 and β2 was cotransfected with human β2 (pRc-CMV/Geneticin) using the FuGene6 transfection agent (Roche Diagnostics, Indianapolis, IN).

α3β4 AChRs [10] = molecular target: T1, α3β4 AChRs; assay: Chronic desensitization (16 h agonist, then ACh response) and calculated smoldering activation, α3β4 cell line; assay type: cell-based; conditions: α3β4: 1.0 mM ACh
Method: as §2, §3, §4

α3β4 AChRs [11] = molecular target: T1, α3β4 AChRs; assay: Acute activation, FLEXStation membrane potential dye, α3β4 cell line; assay type: cell-based; conditions: α3β4
Method: as §5, §6, §7, §3

[12] = overnight (16 h) agonist, read-out: Desensitization IC50

T1 sequence (P32297 32-505): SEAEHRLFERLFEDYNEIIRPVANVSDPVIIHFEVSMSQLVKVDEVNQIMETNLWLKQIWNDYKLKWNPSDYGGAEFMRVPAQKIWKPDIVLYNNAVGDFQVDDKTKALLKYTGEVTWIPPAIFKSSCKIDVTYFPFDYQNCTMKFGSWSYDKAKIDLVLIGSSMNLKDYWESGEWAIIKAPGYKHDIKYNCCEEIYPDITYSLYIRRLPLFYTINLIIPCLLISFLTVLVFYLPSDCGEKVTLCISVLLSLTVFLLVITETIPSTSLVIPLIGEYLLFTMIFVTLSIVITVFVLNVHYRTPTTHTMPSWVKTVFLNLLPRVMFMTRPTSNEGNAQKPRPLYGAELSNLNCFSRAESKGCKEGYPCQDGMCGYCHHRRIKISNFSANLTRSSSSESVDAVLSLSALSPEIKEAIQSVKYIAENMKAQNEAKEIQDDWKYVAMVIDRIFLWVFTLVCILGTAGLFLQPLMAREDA
T1 sequence (P30926 22-498): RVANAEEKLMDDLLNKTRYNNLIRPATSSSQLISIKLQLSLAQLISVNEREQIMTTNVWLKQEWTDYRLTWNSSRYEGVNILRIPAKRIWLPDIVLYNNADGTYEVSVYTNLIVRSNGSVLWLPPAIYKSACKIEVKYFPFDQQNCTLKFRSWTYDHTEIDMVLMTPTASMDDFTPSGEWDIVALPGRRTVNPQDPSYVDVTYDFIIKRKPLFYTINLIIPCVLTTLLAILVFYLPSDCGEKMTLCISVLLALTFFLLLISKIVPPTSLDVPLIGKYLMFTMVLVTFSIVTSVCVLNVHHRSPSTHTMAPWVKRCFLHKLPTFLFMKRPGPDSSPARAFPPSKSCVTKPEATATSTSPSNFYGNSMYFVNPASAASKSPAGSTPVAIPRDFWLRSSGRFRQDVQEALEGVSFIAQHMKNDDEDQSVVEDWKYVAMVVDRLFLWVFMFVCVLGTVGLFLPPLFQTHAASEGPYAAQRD

## CNC1(C)C2CCC(C2)C1(C)C (stereo not shown) [MCA, mecamylamine]
α3β4 AChRs [1]
  Effect of antagonist on sustained agonist response: abrogated

## CCN1C[C@]2(COC(=O)c3ccccc3N3C(=O)C[C@H](C)C3=O)CC[C@H](OC)[C@@]34[C@@H]5C[C@H]6[C@H](OC)[C@@H]5[C@](O)(C[C@@H]6OC)[C@@](O)([C@@H](OC)[C@H]23)[C@@H]14 [MLA, methyllycaconitine]
α7 AChRs [2]
  Effect of antagonist on residual agonist response: abrogated

## OCCCCC#Cc1cncc(OC[C@@H]2CCN2)c1 [Sazetidine-A]
[3]
  Brain levels: 0.15 µM
  Serum levels: 1.6 µM
α7 AChRs [4]
  Hill (desensitization): −2.9
  Intercept of Activation and Desensitization Curves: 1.5 µM
α7 AChRs [4]; [12]
  IC50: 3.5 ± 0.4 µM
Human α4β2 AChRs [5]; (α4β2)2β2 AChRs, 3 µM ACh
  Area of overlap of activation and desensitization curves centered at: 1.5 nM
Human α4β2 AChRs [5]; prolonged exposure, up to high concentrations
  Extent of desensitization of α4β2 AChRs to ACh: full desensitization was not reached even at high concentrations
Human α4β2 AChRs [5]; α4β2, assayed with 100 µM ACh
  Concentration from which the desensitization dose response curve shows a plateau: around 10 nM
Human α4β2 AChRs [5]; α4β2: 3 µM ACh ((α4β2)2β2 stoichiometry), centre of smoldering activation
  Intercept of Activation and Desensitization Curves: 0.0015 µM
Human α4β2 AChRs [5]; α4β2: 3 µM ACh ((α4β2)2β2 stoichiometry), centre of smoldering activation, listed as sazetidine-A
  Intercept of Activation and Desensitization Curves: around 0.0015 µM
Human α4β2 AChRs [5]; α4β2: 3 µM ACh
  IC50: 0.48 ± 0.02 nM
  Hill (desensitization): −0.9
Human α4β2 AChRs [5]; α4β2: 100 µM ACh (both stoichiometries)
  Intercept of Activation and Desensitization Curves: 0.002 µM
Human α4β2 AChRs [5]; α4β2: 100 µM ACh
  IC50: 0.26 ± 0.2 nM
  Hill (desensitization): −0.6
(α4β2)2β2 AChRs [6]; (α4β2)2β2, Xenopus oocytes expressing human α4 and β2 subunits
  Agonist type: full agonist
(α4β2)2β2 AChRs [6]; (α4β2)2β2, concatenated AChRs in Xenopus oocytes
  Agonist type: full agonist
(α4β2)2α4 AChRs; (α4β2)2α4, Xenopus oocytes expressing human α4 and β2 subunits
  Activity: 6%
(α4β2)2α4 AChRs; (α4β2)2α4, concatenated AChRs in Xenopus oocytes
  Agonist type: partial agonist with very low efficacy
(α4β2)2α4 AChRs; (α4β2)2α4 stoichiometry, concatenated AChRs in Xenopus oocytes
  Efficacy: < 1%
α7 AChRs [7]
  Agonist type (full or partial): full agonist
  Efficacy (%) (relative to ACh): 100%
  Hill (activation): 1.6
α7 AChRs [7]; read-out: Activation EC50
  EC50: 1200 ± 80 nM
Human α4β2 AChRs [8]; α4β2
  Efficacy (%) (relative to ACh): 44%
Human α4β2 AChRs [8]; α4β2, mixture of stoichiometries
  Agonist type (full or partial): partial agonist
Human α4β2 AChRs [8]; α4β2, higher sensitivity component or monophasic curve
  Hill (activation): 1.2
Human α4β2 AChRs [8]; α4β2 cell line, mixed stoichiometries, higher sensitivity component where two-site fit, else monophasic, read-out: Activation EC50
  EC50: 2.3 ± 0.3 nM
(α4β2)2β2 AChRs [9]
  Stoichiometry of α4β2 desensitized: desensitizes only the (α4β2)2β2 stoichiometry
α3β4 AChRs [10]
  Hill (desensitization): −0.5
α3β4 AChRs [10]; [12]
  IC50: 330 ± 100 nM
α3β4 AChRs [11]
  Agonist type (full or partial): full agonist
  Efficacy (%) (relative to ACh): 100%
  Hill (activation): 1.3
α3β4 AChRs [11]; read-out: Activation EC50
  EC50: 170 ± 30 nM
